Data on one compound can be found in publication PMC5823406, “Vehicle development, pharmacokinetics and toxicity of the anti-invasive agent 4-fluoro-3’,4’,5’-trimethoxychalcone in rodents” (PLoS ONE, 2018).

In general, fraction remaining refers to the share of the starting amount still present when the sample was taken.

This series in a line: Whole blood stability. Type of series: in vitro ADME, rat. The settings on record: for half-life at 1 μM: male, Sprague-Dawley, rat. As to the method: C16 (1 μM) or vehicle (DMSO) were incubated with fresh rat blood (Sprague Dawley, male) at 37°C at 5 time points in duplicate over a 120-min period. The final DMSO concentration in the incubation was 0.25%. Reactions were terminated following 0, 15, 30, 60 and 120 min by acetonitrile containing internal standard. The sampling plate was centrifuged (3000 rpm, 45 min, 4 °C) and the supernatants from each time point analyzed for parent compound by HPLC-MS/MS. The percentage of parent compound remaining at each time point relative to the 0-min sample was then calculated from HPLC-MS/MS peak area ratios (compound peak area/internal standard peak area).
C. Stability and metabolism
For details on ADME experiments not included underneath , please consult ref. [1].
C.A. Whole blood stability
Column: Kinetex XB-C18 column, 2.6 µm (150 x2.1 mm)
Mobile phase A: H2O + 0.1% v/v Formic Acid
Mobile phase B: MeCN + 0.1% v/v Formic Acid
Autosampler syringe volume: 100 µL
Weak wash: MeOH:H2O 1:9 v/v
Strong wash: MeOH:H2O 95:5 v/v
Table K. Gradient program.
Mass spectrometric conditions
Model: AB Sciex API5500 QTrap
Mode: Multiple ion monitoring (MIM)
Table L. MIM (parent to parent transitions).
The areas and percentages for the parent and metabolites have been calculated using MIM data where parent to parent transitions have been used, and assume that each metabolite has the same point of ionisation and the sensitivity of the metabolite has not been affected by the biotransformation.

The structures appear in SMILES notation. Like-named read-outs stand apart in the source and are kept apart here.

For the compound `COc1cc(C(=O)/C=C/c2ccc(F)cc2)cc(OC)c1OC` [C16, 4-fluoro-3’,4’,5’-trimethoxychalcone], where the note is “fresh whole blood, male Sprague-Dawley rat blood, 15 min, read-out: Compound remaining (% of 0 min)”, the share remaining at 15 min, 1 µM amounted to 16.5%. Moreover, the fraction remaining at 30 min, 1 µM (fresh whole blood, male Sprague-Dawley rat blood, 30 min, read-out: Compound remaining (% of 0 min)) is 13.8%. Further, the amount remaining at 60 min, 1 µM (fresh whole blood, male Sprague-Dawley rat blood, 60 min, read-out: Compound remaining (% of 0 min)) came out at 10.6%. Besides, under “fresh whole blood, male Sprague-Dawley rat blood, 120 min, read-out: Compound remaining (% of 0 min)”, the amount remaining at 120 min, 1 µM was 7%. The Intrinsic clearance (male Sprague-Dawley rat blood, Both Isomers integrated) was found to be 120 µL/min/mL blood. Besides, the half-life at 1 μM runs as follows: (fresh whole blood, blood (rat, Sprague-Dawley), 1 μM, read-out: Half-life) 6 min; (fresh whole blood, male Sprague-Dawley rat blood, Both Isomers integrated, read-out: t1/2) 5.76 min; (fresh whole blood, male Sprague-Dawley rat blood, E-isomer only, read-out: t1/2) 8.06 min.
